Assays:
Test in all cases: relative viability (nuclei count vs DMSO), 5 days (fraction); higher = more cells survive
[1] = tested on: HCC-366
Outline: (§1)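 Lung cancer cell lines were seeded in 1536-well plates and dosed by pin tool the next day, with either a single drug or a fixed anchor-drug dose combined with five library-drug doses (not always all listed) spaced in √10 steps. Five days later, one step fixed the cells and stained their nuclei (final 0.05% Triton X-100, 1% formaldehyde, 1 ug/ml Hoechst), and nuclei were counted on 4× images. Relative viability is the nuclei count in treated wells divided by the count in vehicle wells, and each value is the median of duplicate plates.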

[2] = tested on: NCI-H727
Outline: as §1

[3] = tested on: EPLC-272H
Outline: as §1

[4] = tested on: ChaGo-K-1
Outline: as §1

[5] = tested on: A549
Outline: as §1

[6] = tested on: NCI-H1703
Outline: as §1

[7] = tested on: IA-LM
Outline: as §1

[8] = tested on: NCI-H1563
Outline: as §1

C=C1C(=O)O[C@@H](CCCCCCCC)[C@@H]1C(=O)O [C-75] + CC(=O)Nc1cccc(-n2c(=O)n(C3CC3)c(=O)c3c(Nc4ccc(I)cc4F)n(C)c(=O)c(C)c32)c1 [Trametinib] (partner 0.02 µM)
relative viability ([1]; first compound 0.08 µM): 0.356 | relative viability ([1]; first compound 0.253 µM): 0.426 | relative viability ([1]; first compound 0.8 µM): 0.327 | relative viability ([1]; first compound 2.53 µM): 0.285 | relative viability ([1]; first compound 8 µM): 0.326 | relative viability ([2]; first compound 0.08 µM): 0.377 | relative viability ([2]; first compound 0.253 µM): 0.378 | relative viability ([2]; first compound 0.8 µM): 0.448 | relative viability ([2]; first compound 2.53 µM): 0.393 | relative viability ([2]; first compound 8 µM): 0.352 | relative viability ([3]; first compound 0.08 µM): 0.311 | relative viability ([3]; first compound 0.253 µM): 0.341 | relative viability ([3]; first compound 0.8 µM): 0.27 | relative viability ([3]; first compound 2.53 µM): 0.299 | relative viability ([3]; first compound 8 µM): 0.363 | relative viability ([4]; first compound 0.08 µM): 0.878 | relative viability ([4]; first compound 0.253 µM): 0.875 | relative viability ([4]; first compound 0.8 µM): 0.819 | relative viability ([4]; first compound 2.53 µM): 0.538 | relative viability ([4]; first compound 8 µM): 0.907

C=C1C(=O)O[C@@H](CCCCCCCC)[C@@H]1C(=O)O [C-75] + Nc1ncn([C@H]2C[C@H](O)[C@@H](CO)O2)c(=O)n1 [Decitabine] (partner 2 µM)
relative viability ([5]; first compound 0.08 µM): 0.27 | relative viability ([5]; first compound 0.253 µM): 0.255 | relative viability ([5]; first compound 0.8 µM): 0.273 | relative viability ([5]; first compound 2.53 µM): 0.35 | relative viability ([5]; first compound 8 µM): 0.215 | relative viability ([1]; first compound 0.08 µM): 0.357 | relative viability ([1]; first compound 0.253 µM): 0.361 | relative viability ([1]; first compound 0.8 µM): 0.385 | relative viability ([1]; first compound 2.53 µM): 0.344 | relative viability ([1]; first compound 8 µM): 0.289 | relative viability ([2]; first compound 0.08 µM): 0.887 | relative viability ([2]; first compound 0.253 µM): 0.955 | relative viability ([2]; first compound 0.8 µM): 0.807 | relative viability ([2]; first compound 2.53 µM): 0.767 | relative viability ([2]; first compound 8 µM): 0.873 | relative viability ([3]; first compound 0.08 µM): 0.338 | relative viability ([3]; first compound 0.253 µM): 0.436 | relative viability ([3]; first compound 0.8 µM): 0.334 | relative viability ([3]; first compound 2.53 µM): 0.33 | relative viability ([3]; first compound 8 µM): 0.349 | relative viability ([4]; first compound 0.08 µM): 0.505 | relative viability ([4]; first compound 0.253 µM): 0.504 | relative viability ([4]; first compound 0.8 µM): 0.503 | relative viability ([4]; first compound 2.53 µM): 0.423 | relative viability ([4]; first compound 8 µM): 0.552

C=C1C(=O)O[C@@H](CCCCCCCC)[C@@H]1C(=O)O [C-75] + NC(=O)Nc1cc(-c2cccc(F)c2)sc1C(=O)N[C@H]1CCCNC1 [AZD7762] (partner 0.2 µM)
relative viability ([6]; first compound 0.08 µM): 0.125 | relative viability ([6]; first compound 0.253 µM): 0.126 | relative viability ([6]; first compound 0.8 µM): 0.115 | relative viability ([6]; first compound 8 µM): 0.149 | relative viability ([1]; first compound 0.08 µM): 0.271 | relative viability ([1]; first compound 0.253 µM): 0.306 | relative viability ([1]; first compound 0.8 µM): 0.227 | relative viability ([1]; first compound 2.53 µM): 0.152 | relative viability ([1]; first compound 8 µM): 0.52 | relative viability ([2]; first compound 0.08 µM): 0.694 | relative viability ([2]; first compound 0.253 µM): 0.906 | relative viability ([2]; first compound 0.8 µM): 0.4 | relative viability ([2]; first compound 2.53 µM): 0.587 | relative viability ([2]; first compound 8 µM): 0.388 | relative viability ([3]; first compound 0.08 µM): 0.23 | relative viability ([3]; first compound 0.253 µM): 0.257 | relative viability ([3]; first compound 0.8 µM): 0.188 | relative viability ([3]; first compound 2.53 µM): 0.196 | relative viability ([3]; first compound 8 µM): 0.266 | relative viability ([4]; first compound 0.08 µM): 0.857 | relative viability ([4]; first compound 0.253 µM): 0.921 | relative viability ([4]; first compound 0.8 µM): 0.777 | relative viability ([4]; first compound 2.53 µM): 0.603 | relative viability ([4]; first compound 8 µM): 0.812

Oc1nc(-c2ccc(C(F)(F)F)cc2)nc2c1CSCC2 [XAV939] + CC(=O)Nc1cccc(-n2c(=O)n(C3CC3)c(=O)c3c(Nc4ccc(I)cc4F)n(C)c(=O)c(C)c32)c1 [Trametinib] (partner 0.02 µM)
relative viability ([1]; first compound 0.08 µM): 0.307 | relative viability ([1]; first compound 0.253 µM): 0.28 | relative viability ([1]; first compound 0.8 µM): 0.327 | relative viability ([1]; first compound 2.53 µM): 0.259 | relative viability ([2]; first compound 0.08 µM): 0.361 | relative viability ([2]; first compound 0.8 µM): 0.398 | relative viability ([2]; first compound 2.53 µM): 0.403 | relative viability ([3]; first compound 0.08 µM): 0.29 | relative viability ([3]; first compound 0.253 µM): 0.251 | relative viability ([3]; first compound 0.8 µM): 0.274 | relative viability ([3]; first compound 2.53 µM): 0.23 | relative viability ([4]; first compound 0.08 µM): 0.977 | relative viability ([4]; first compound 0.253 µM): 0.82 | relative viability ([4]; first compound 0.8 µM): 0.907 | relative viability ([4]; first compound 2.53 µM): 0.802

C=C1C(=O)O[C@@H](CCCCCCCC)[C@@H]1C(=O)O [C-75] + O=C(CCCCCCC(=O)Nc1ccccc1)NO [Vorinostat] (partner 1 µM)
relative viability ([1]; first compound 0.08 µM): 0.409 | relative viability ([1]; first compound 0.253 µM): 0.399 | relative viability ([1]; first compound 0.8 µM): 0.256 | relative viability ([1]; first compound 2.53 µM): 0.269 | relative viability ([1]; first compound 8 µM): 0.301 | relative viability ([2]; first compound 0.08 µM): 1.22 | relative viability ([2]; first compound 0.253 µM): 1.31 | relative viability ([2]; first compound 0.8 µM): 0.973 | relative viability ([2]; first compound 2.53 µM): 1.18 | relative viability ([2]; first compound 8 µM): 1.23 | relative viability ([3]; first compound 0.08 µM): 0.477 | relative viability ([3]; first compound 0.253 µM): 0.545 | relative viability ([3]; first compound 0.8 µM): 0.655 | relative viability ([3]; first compound 2.53 µM): 0.41 | relative viability ([3]; first compound 8 µM): 0.391 | relative viability ([4]; first compound 0.08 µM): 0.759 | relative viability ([4]; first compound 0.253 µM): 0.772 | relative viability ([4]; first compound 0.8 µM): 0.701 | relative viability ([4]; first compound 2.53 µM): 0.609 | relative viability ([4]; first compound 8 µM): 0.668 | relative viability ([7]; first compound 0.08 µM): 0.886 | relative viability ([7]; first compound 0.253 µM): 1.35 | relative viability ([7]; first compound 0.8 µM): 0.935 | relative viability ([7]; first compound 2.53 µM): 1.25 | relative viability ([7]; first compound 8 µM): 0.8

Oc1nc(-c2ccc(C(F)(F)F)cc2)nc2c1CSCC2 [XAV939] + Nc1nc2[nH]cc(CCc3ccc(C(=O)N[C@@H](CCC(=O)O)C(=O)O)cc3)c2c(=O)[nH]1 [Pemetrexed] (partner 0.2 µM)
relative viability ([1]; first compound 0.08 µM): 0.179 | relative viability ([1]; first compound 0.253 µM): 0.131 | relative viability ([1]; first compound 0.8 µM): 0.142 | relative viability ([1]; first compound 2.53 µM): 0.117 | relative viability ([3]; first compound 0.08 µM): 0.312 | relative viability ([3]; first compound 0.253 µM): 0.238 | relative viability ([3]; first compound 0.8 µM): 0.511 | relative viability ([3]; first compound 2.53 µM): 0.308 | relative viability ([4]; first compound 0.08 µM): 0.261 | relative viability ([4]; first compound 0.253 µM): 0.259 | relative viability ([4]; first compound 0.8 µM): 0.269 | relative viability ([4]; first compound 2.53 µM): 0.26 | relative viability ([8]; first compound 0.08 µM): 0.823 | relative viability ([8]; first compound 0.253 µM): 0.685 | relative viability ([8]; first compound 0.8 µM): 0.659 | relative viability ([8]; first compound 2.53 µM): 0.47

Oc1nc(-c2ccc(C(F)(F)F)cc2)nc2c1CSCC2 [XAV939] + Nc1ncn([C@H]2C[C@H](O)[C@@H](CO)O2)c(=O)n1 [Decitabine] (partner 2 µM)
relative viability ([5]; first compound 0.08 µM): 0.291 | relative viability ([5]; first compound 0.8 µM): 0.315 | relative viability ([5]; first compound 2.53 µM): 0.228 | relative viability ([1]; first compound 0.08 µM): 0.329 | relative viability ([1]; first compound 0.253 µM): 0.299 | relative viability ([1]; first compound 0.8 µM): 0.326 | relative viability ([1]; first compound 2.53 µM): 0.31 | relative viability ([2]; first compound 0.08 µM): 0.805 | relative viability ([2]; first compound 0.8 µM): 0.934 | relative viability ([2]; first compound 2.53 µM): 0.653 | relative viability ([3]; first compound 0.08 µM): 0.357 | relative viability ([3]; first compound 0.253 µM): 0.299 | relative viability ([3]; first compound 0.8 µM): 0.385 | relative viability ([3]; first compound 2.53 µM): 0.332 | relative viability ([4]; first compound 0.08 µM): 0.495 | relative viability ([4]; first compound 0.253 µM): 0.505 | relative viability ([4]; first compound 0.8 µM): 0.507 | relative viability ([4]; first compound 2.53 µM): 0.494

Oc1nc(-c2ccc(C(F)(F)F)cc2)nc2c1CSCC2 [XAV939] + NC(=O)Nc1cc(-c2cccc(F)c2)sc1C(=O)N[C@H]1CCCNC1 [AZD7762] (partner 0.2 µM)
relative viability ([6]; first compound 0.08 µM): 0.156 | relative viability ([6]; first compound 0.253 µM): 0.137 | relative viability ([6]; first compound 0.8 µM): 0.138 | relative viability ([6]; first compound 2.53 µM): 0.111 | relative viability ([1]; first compound 0.08 µM): 0.423 | relative viability ([1]; first compound 0.253 µM): 0.211 | relative viability ([1]; first compound 0.8 µM): 0.188 | relative viability ([1]; first compound 2.53 µM): 0.132 | relative viability ([2]; first compound 0.08 µM): 0.514 | relative viability ([2]; first compound 0.8 µM): 0.626 | relative viability ([2]; first compound 2.53 µM): 0.783 | relative viability ([3]; first compound 0.08 µM): 0.229 | relative viability ([3]; first compound 0.253 µM): 0.18 | relative viability ([3]; first compound 0.8 µM): 0.193 | relative viability ([3]; first compound 2.53 µM): 0.0888 | relative viability ([4]; first compound 0.08 µM): 0.904 | relative viability ([4]; first compound 0.253 µM): 0.686 | relative viability ([4]; first compound 0.8 µM): 0.717 | relative viability ([4]; first compound 2.53 µM): 0.754
